The text below walks through data of article PMC11460631, “Inhibition of transient receptor potential vanilloid 3 channels by antimalarial hydroxychloroquine alleviates TRPV3-dependent dermatitis” (The Journal of Biological Chemistry, 2024).

One may read the IC50 as the point on the concentration scale where inhibition reaches its midpoint. Low values mean higher potency, high ones lower potency.

Experiment [1] addresses T1, TRPV3 F633 alanine mutation (Homo sapiens, UniProt Q8NET8, F633A).
T1 construct: YFP or GFP; expressed in transfected cells; host or cells: HEK293T
T1 sequence (Q8NET8 1-790 F633A): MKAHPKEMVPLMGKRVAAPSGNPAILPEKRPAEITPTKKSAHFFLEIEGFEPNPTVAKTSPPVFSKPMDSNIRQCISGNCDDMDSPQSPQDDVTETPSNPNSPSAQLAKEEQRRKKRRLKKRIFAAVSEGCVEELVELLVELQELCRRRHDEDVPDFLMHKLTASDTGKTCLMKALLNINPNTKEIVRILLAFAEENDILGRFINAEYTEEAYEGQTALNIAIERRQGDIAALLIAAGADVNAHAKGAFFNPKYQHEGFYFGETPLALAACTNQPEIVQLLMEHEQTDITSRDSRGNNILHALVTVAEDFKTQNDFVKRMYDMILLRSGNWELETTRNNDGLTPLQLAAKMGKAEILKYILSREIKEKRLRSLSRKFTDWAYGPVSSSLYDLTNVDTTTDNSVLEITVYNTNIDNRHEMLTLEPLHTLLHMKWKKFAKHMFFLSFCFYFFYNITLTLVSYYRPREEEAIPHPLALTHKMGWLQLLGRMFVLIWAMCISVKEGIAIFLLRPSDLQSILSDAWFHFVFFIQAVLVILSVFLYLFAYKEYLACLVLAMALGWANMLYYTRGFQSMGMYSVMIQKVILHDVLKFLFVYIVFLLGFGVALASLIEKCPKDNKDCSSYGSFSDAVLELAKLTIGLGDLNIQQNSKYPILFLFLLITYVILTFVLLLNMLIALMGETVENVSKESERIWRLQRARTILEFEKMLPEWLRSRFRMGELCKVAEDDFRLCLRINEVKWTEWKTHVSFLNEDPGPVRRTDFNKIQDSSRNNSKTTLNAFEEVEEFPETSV
The experiment can be described thus: Whole-cell recording of TRPV3 F633 alanine mutant. Type of experiment: cell-based. The following applies: 1 mM 2-APB, ± 80 mV. The text has this:
(§1) As we mentioned above, HCQ may act as a pore blocker of TRPV3. To probe the binding configuration of HCQ to TRPV3, we carried out molecular docking using Rosetta suite (https://rosettacommons.org) ([21]) and validated the docking models with point mutations in TRPV3 (Fig. 4A). […] Furthermore, when we introduced L670A to L591A mutant, we also observed a left shift on the concentration–response curve on this double mutant as compared to L591A mutant (Fig. 4H).
(§2) Figure 4 Residues of the pore domain are critical for HCQ inhibition on TRPV3.A, left panel, docking model of HCQ to the pore domain of TRPV3 structure (6uw4). Right panels, top view and side view of the HCQ-binding pocket. B-J, representative whole-cell recording of TRPV3 and mutants in response to 1 mM 2-APB, the mixture of 1 mM 2-APB and concentration gradients of HCQ with the holding potential of ± 80 mV. K, concentration–response curves of HCQ in WT TRPV3 and mutants (n = 3–5 cells). L, quantification of the inhibitory ratio of HCQ (100 μM) on WT, L591A, and N671Q. […]
(§3) All data from whole-cell recordings were analyzed in Igor Pro (WaveMetrics). IC50 values were determined by fitting the Hill equation to concentration-response relationships. […]

Another experiment addresses T2, TRPV3 Y594F mutation (Homo sapiens, UniProt Q8NET8, Y594F).
T2 construct: YFP or GFP; expressed in transfected cells; host or cells: HEK293T
T2 sequence (Q8NET8 1-790 Y594F): T1 sequence (Q8NET8 1-790 F633A) with Y594F, A633F
The experiment can be described thus: Whole-cell recording of TRPV3 Y594F mutant. The following applies: 1 mM 2-APB, ± 80 mV. Type of experiment: cell-based.
From the text: as §1, §2, §3

SMILES strings stand for the structures. Where a chain is given by its changes, count along the chain named.

Consider `CCN(CCO)CCCC(C)Nc1ccnc2cc(Cl)ccc12` (centres unmarked) [HCQ, hydroxychloroquine], for which the IC50 in experiment [1] is 0.14 ± 0.01 µM; at TRPV3 Y594F mutation, 34.8 ± 1.59 µM.
